Tests used:
eotaxin-3 release = assay: Human whole blood eotaxin-3 assay (IL-4 stimulated); assay type: cell-based; conditions: human whole blood, IL-4 0.4 nM, 48 hours; geometric mean; given for compounds with >80% Emax; read-out: Eotaxin-3 EC50
Method: Human Whole Blood Eotaxin-3 Assay
This was a human whole blood assay using recombinant human Interleukin 4 to stimulate the blood and measuring the ability of the test compounds to inhibit eotaxin-3 release. Compounds or media were added to the wells and incubated together with human whole blood for 120 minutes at 37° C. Subsequently, recombinant IL-4 was added at a final concentration of 0.4 nM. The plates were incubated for 48 hours.
Test compounds which inhibited eotaxin-3 release upon stimulation with human IL-4 (E. coli) interfered with the signaling in human whole blood are expected to have activity in human beings. […] The EC50 value indicates at which concentration test compounds were active and in inhibiting the eotaxin-3 release. As eotaxin-3 release is down-stream of STAT6 signaling both STAT6 inhibitors and STAT6 degraders are active in this assay.
The data from the human whole blood eotaxin-3 assay is shown below for Examples 3e27, 3e50, 3e17, and 3e51 (where the effect in % is plotted against the test concentration in M on a log-scale).

STAT6 = STAT6 (Homo sapiens (Human), UniProt P42226); assay: STAT6 degrader assay (HiBiT, HeLa LgBiT clone 4.14); assay type: cell-based; conditions: HeLa LgBiT clone 4.14, 4-24 h; for Emax: read-out: STAT6 degradation Emax (%); for DC50: geometric mean, given for compounds with >80% Emax, read-out: STAT6 degradation DC50
STAT6, sequence (P42226 whole entry): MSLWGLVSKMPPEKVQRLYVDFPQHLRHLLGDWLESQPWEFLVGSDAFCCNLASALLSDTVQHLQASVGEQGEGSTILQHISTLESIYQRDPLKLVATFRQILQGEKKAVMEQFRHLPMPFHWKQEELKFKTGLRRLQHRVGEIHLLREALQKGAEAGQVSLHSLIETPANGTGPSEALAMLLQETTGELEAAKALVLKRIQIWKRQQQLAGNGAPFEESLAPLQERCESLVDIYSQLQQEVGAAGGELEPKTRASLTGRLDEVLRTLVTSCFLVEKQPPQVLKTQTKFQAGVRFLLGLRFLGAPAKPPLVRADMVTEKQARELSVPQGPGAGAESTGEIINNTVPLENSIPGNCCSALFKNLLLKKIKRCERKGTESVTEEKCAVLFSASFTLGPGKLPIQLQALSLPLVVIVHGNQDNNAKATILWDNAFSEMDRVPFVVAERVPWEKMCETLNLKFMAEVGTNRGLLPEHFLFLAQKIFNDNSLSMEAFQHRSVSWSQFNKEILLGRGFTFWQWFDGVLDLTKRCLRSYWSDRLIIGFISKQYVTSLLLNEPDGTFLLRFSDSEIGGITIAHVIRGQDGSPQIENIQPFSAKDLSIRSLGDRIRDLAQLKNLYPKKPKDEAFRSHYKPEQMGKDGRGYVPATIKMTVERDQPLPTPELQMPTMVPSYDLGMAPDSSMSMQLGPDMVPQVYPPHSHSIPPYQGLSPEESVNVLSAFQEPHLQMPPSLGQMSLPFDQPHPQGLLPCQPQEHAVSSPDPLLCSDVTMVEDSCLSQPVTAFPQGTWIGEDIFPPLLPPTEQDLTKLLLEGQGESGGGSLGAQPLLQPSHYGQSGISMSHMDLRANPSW
Procedure, shortened: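 DC50 (nM) comes from luminescence of non-degraded STAT6 read 0.5 h after Nano-GLO addition, following 4-24 h compound exposure at 37° C. Cells were HeLa clone 4.14 expressing LgBiT with a CRISPR HiBiT tag on endogenous STAT6; 50 μM terfenadine set full degradation.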

SMILES	EC50 (eotaxin-3 release) [nM]	Emax (STAT6) [%]	DC50 (STAT6) [nM]
Cn1c(CN2CCC(c3ccc(C(=O)N4CCC(CN5CCN(Cc6cc7c(cc6F)n(C6CCC(=O)NC6=O)c(=O)n7C)CC5)CC4)cc3)CC2)cc2c(-c3ccc(N)nc3)ccnc21 (stereo not shown) [Example 3e15, 3-(5-((4-((1-(4-(1-((4-(6-aminopyridin-3-yl)-1-methyl-1H-pyrrolo[2,3-b]pyridin-2-yl)methyl)piperidin-4-yl)benzoyl)piperidin-4-yl)methyl)piperazin-1-yl)methyl)-6-fluoro-3-methyl-2-oxo-2,3-dihydro-1H-benzo[d]imidazol-1-yl)piperidine-2,6-dione]	135	70 to 80	–
C[C@H]1CN(Cc2ccc3c(c2)n(C)c(=O)n3C2CCC(=O)NC2=O)CCN1CC1CCN(C(=O)c2ccc(C3CCN([C@@H](C)c4cc5c(-c6ccc(N)nc6)ccnc5n4C)CC3)cc2)CC1 (stereo partly drawn) [Example 3e16, 3-(5-(((S)-4-((1-(4-(1-((S)-1-(4-(6-aminopyridin-3-yl)-1-methyl-1H-pyrrolo[2,3-b]pyridin-2-yl)ethyl)piperidin-4-yl)benzoyl)piperidin-4-yl)methyl)-3-methylpiperazin-1-yl)methyl)-3-methyl-2-oxo-2,3-dihydro-1H-benzo[d]imidazol-1-yl)piperidine-2,6-dione]	1.3	–	0.4
C[C@H]1CN(Cc2ccc3c(c2)n(C2CC2)c(=O)n3C2CCC(=O)NC2=O)CCN1CC1CCN(C(=O)c2ccc(C3CCN([C@@H](C)c4cc5c(-c6ccc(N)nc6)ccnc5n4C)CC3)cc2)CC1 (stereo partly drawn) [Example 3e17, 3-(5-(((S)-4-((1-(4-(1-((S)-1-(4-(6-aminopyridin-3-yl)-1-methyl-1H-pyrrolo[2,3-b]pyridin-2-yl)ethyl)piperidin-4-yl)benzoyl)piperidin-4-yl)methyl)-3-methylpiperazin-1-yl)methyl)-3-cyclopropyl-2-oxo-2,3-dihydro-1H-benzo[d]imidazol-1-yl)piperidine-2,6-dione]	2.8	–	0.8
C[C@@H]1CN(Cc2ccc3c(c2)n(C)c(=O)n3C2CCC(=O)NC2=O)C[C@H](C)N1CC1CCN(C(=O)c2ccc(C3CCN([C@@H](C)c4cc5c(-c6ccc(N)nc6)ccnc5n4C)CC3)cc2)CC1 (stereo partly drawn) [Example 3e18, 3-(5-((4-((1-(4-(1-((S)-1-(4-(6-aminopyridin-3-yl)-1-methyl-1H-pyrrolo[2,3-b]pyridin-2-yl)ethyl)-piperidin-4-yl)benzoyl)piperidin-4-yl)methyl)-3,5-cis-dimethylpiperazin-1-yl)methyl)-3-methyl-2-oxo-2,3-dihydro-1H-benzo[d]imidazol-1-yl)piperidine-2,6-dione]	5.5	–	1.4
CC[C@H]1CN(Cc2ccc3c(c2)n(C)c(=O)n3C2CCC(=O)NC2=O)CCN1CC1CCN(C(=O)c2ccc(C3CCN([C@@H](C)c4cc5c(-c6ccc(N)nc6)ccnc5n4C)CC3)cc2)CC1 (stereo partly drawn) [Example 3e23, 3-(5-(((S)-4-((1-(4-(1-((S)-1-(4-(6-aminopyridin-3-yl)-1-methyl-1H-pyrrolo[2,3-b]pyridin-2-yl)ethyl)piperidin-4-yl)benzoyl)piperidin-4-yl)methyl)-3-ethylpiperazin-1-yl)methyl)-3-methyl-2-oxo-2,3-dihydro-1H-benzo[d]imidazol-1-yl)piperidine-2,6-dione]	4.2	–	0.8
COCc1nc2cc(-c3ccnc4c3cc([C@H](C)N3CCC(c5ccc(C(=O)N6CCC(CN7CCN(Cc8ccc9c(c8)n(C8CC8)c(=O)n9C8CCC(=O)NC8=O)C[C@@H]7C)CC6)cc5)CC3)n4C)ccc2[nH]1 (stereo partly drawn) [Example 3e27, 3-(3-cyclo-propyl-5-(((S)-4-((1-(4-(1-((S)-1-(4-(2-(methoxymethyl)-1H-benzo[d]imidazol-5-yl)-1-methyl-1H-pyrrolo[2,3-b]pyridin-2-yl)ethyl)piperidin-4-yl)benzoyl)piperidin-4-yl)methyl)-3-methylpiperazin-1-yl)methyl)-2-oxo-2,3-dihydro-1H-benzo[d]imidazol-1-yl)piperidine-2,6-dione]	2.7	–	0.4
COC[C@H]1CN(Cc2ccc3c(c2)n(C)c(=O)n3C2CCC(=O)NC2=O)CCN1CC1CCN(C(=O)c2ccc(C3CCN([C@@H](C)c4cc5c(-c6ccc(N)nc6)ccnc5n4C)CC3)cc2)CC1 (stereo partly drawn) [Example 3e28, 3-(5-(((R)-4-((1-(4-(1-((S)-1-(4-(6-aminopyridin-3-yl)-1-methyl-1H-pyrrolo[2,3-b]pyridin-2-yl)ethyl)piperidin-4-yl)benzoyl)piperidin-4-yl)methyl)-3-(methoxymethyl)piperazin-1-yl)methyl)-3-methyl-2-oxo-2,3-dihydro-1H-benzo[d]imidazol-1-yl)piperidine-2,6-dione]	1.1	–	0.2
C[C@@H](c1cc2c(-c3ccc(N)nc3)ccnc2n1C)N1CCC(c2ccc(C(=O)N3CCC(CN4[C@@H](C)CN(Cc5ccc6c(c5)n(C)c(=O)n6C5CCC(=O)NC5=O)C[C@@H]4C)CC3)cc2)CC1 (stereo partly drawn) [Example 3e29, 3-(5-(((3S,5S)-4-((1-(4-(1-((S)-1-(4-(6-aminopyridin-3-yl)-1-methyl-1H-pyrrolo [2,3-b]pyridin-2-yl)ethyl)piperidin-4-yl)benzoyl)piperidin-4-yl)methyl)-3,5-dimethylpiperazin-1l-yl)methyl)-3-methyl-2-oxo-2,3-dihydro-1H-benzo[d]imidazol-1-yl)piperidine-2,6-dione]	2.3	–	0.4
C[C@@H](c1cc2c(-c3ccc(N)nc3)ccnc2n1C)N1CCC(c2ccc(C(=O)N3CCC(CN4CCN(Cc5cc6c(cc5Cl)n(C5CCC(=O)NC5=O)c(=O)n6C)CC4)CC3)cc2)CC1 (stereo partly drawn) [Example 3e30, 3-(5-((4-((1-(4-(1-((S)-1-(4-(6-aminopyridin-3-yl)-1-methyl-1H-pyrrolo[2,3-b]pyridin-2-yl)ethyl)piperidin-4-yl)benzoyl)piperidin-4-yl)methyl)piperazin-1-yl)methyl)-6-chloro-3-methyl-2-oxo-2,3-dihydro-1H-benzo[d]imidazol-1-yl)piperidine-2,6-dione]	36.9	–	7.2
C[C@@H](c1cc2c(-c3ccc(N)nc3)ccnc2n1C)N1CCC(c2ccc(C(=O)N3CCC(CN4CCN(Cc5ccc6c(c5)n(C)c(=O)n6C5CCC(=O)NC5=O)CC4C(F)(F)F)CC3)cc2)CC1 (stereo partly drawn) [Example 3e31, 3-(5-((4-((1-(4-(1-((S)-1-(4-(6-aminopyridin-3-yl)-1-methyl-1H-pyrrolo[2,3-b]pyridin-2-yl)ethyl)piperidin-4-yl)benzoyl)piperidin-4-yl)methyl)-3-(trifluoromethyl)piperazin-1-yl)methyl)-3-methyl-2-oxo-2,3-dihydro-1H-benzo[d]imidazol-1-yl)piperidine-2,6-dione]	9.3	–	2
C[C@@H](c1cc2c(-c3ccc(N)nc3)ccnc2n1C)N1CCC(c2ccc(C(=O)N3CCC(F)(CN4CCN(Cc5ccc6c(c5)n(C)c(=O)n6C5CCC(=O)NC5=O)CC4)CC3)cc2)CC1 (stereo partly drawn) [Example 3e32, 3-(5-((4-((1-(4-(1-((S)-1-(4-(6-aminopyridin-3-yl)-1-methyl-1H-pyrrolo[2,3-b]pyridin-2-yl)ethyl)piperidin-4-yl)benzoyl)-4-fluoropiperidin-4-yl)methyl)piperazin-1-yl)methyl)-3-methyl-2-oxo-2,3-dihydro-1H-benzo[d]imidazol-1-yl)piperidine-2,6-dione]	7.8	–	1.6
C[C@@H](c1cc2c(-c3ccc(N)nc3)ccnc2n1C)N1CCC(c2ccc(C(=O)N3CCC(CN4CCN(Cc5cc6c(cc5F)n(C5CCC(=O)NC5=O)c(=O)n6C)CC4)CC3)cc2)CC1 (stereo partly drawn) [Example 3e33, 3-(5-((4-((1-(4-(1-((S)-1-(4-(6-aminopyridin-3-yl)-1-methyl-1H-pyrrolo[2,3-b]pyridin-2-yl)ethyl)piperidin-4-yl)benzoyl)piperidin-4-yl)methyl)piperazin-1-yl)methyl)-6-fluoro-3-methyl-2-oxo-2,3-dihydro-1H-benzo[d]imidazol-1-yl)piperidine-2,6-dione]	4.9	–	1.8
C[C@@H](c1cc2c(-c3ccc(N)nc3)ccnc2n1C)N1CCC(c2ccc(C(=O)N3CCC(CN4CCN(Cc5cc6c(cc5F)n(C5CCC(=O)NC5=O)c(=O)n6C5CC5)CC4)CC3)cc2)CC1 (stereo partly drawn) [Example 3e35, 3-(5-((4-((1-(4-(1-((S)-1-(4-(6-aminopyridin-3-yl)-1-methyl-1H-pyrrolo[2,3-b]pyridin-2-yl)ethyl)piperidin-4-yl)benzoyl)piperidin-4-yl)methyl)piperazin-1-yl)methyl)-3-cyclopropyl-6-fluoro-2-oxo-2,3-dihydro-1H-benzo[d]imidazol-1-yl)piperidine-2,6-dione]	7.9	–	3.2
C[C@@H](c1cc2c(-c3ccc(N)nc3)ccnc2n1C)N1CCC(c2ccc(C(=O)N3CCC(CN4CCN(Cc5ccc6c(c5)n(CCO)c(=O)n6C5CCC(=O)NC5=O)CC4)CC3)cc2)CC1 (stereo partly drawn) [Example 3e36, 3-(5-((4-((1-(4-(1-((S)-1-(4-(6-aminopyridin-3-yl)-1-methyl-1H-pyrrolo[2,3-b]pyridin-2-yl)ethyl)piperidin-4-yl)benzoyl)piperidin-4-yl)methyl)piperazin-1-yl)methyl)-3-(2-hydroxyethyl)-2-oxo-2,3-dihydro-1H-benzo[d]imidazol-1-yl)piperidine-2,6-dione]	23.7	70 to 80	–
